# Patent US20100056948A1, “Stimulation of Satiety Hormone Release” (priority 2008, published 2010)
# Legend:
# [1] = system: segments of duodenum, jejunum ileum, colon, esophagus, stomach; test: GLP-1 release from segments of the entire GI tract incubated in linoleic acid; format: cell-based, rat; conditions: LA 3 mg/mL, 45 minutes (FIG. 2)
# isolated ileum = test: Muscle tone of isolated ileum (force transducer); format: cell-based, rat; conditions: for Change in muscle tone of isolated ileum after 40 min compared to KRB buffer: P<0.05 by ANOVA
# Experimental: (§1) Female Sprague-Dawley rats, 8-12 weeks weighing 250-300 g were euthanized by CO2 and at least 17 cm of distal ileum was immediately dissected starting at the ileocecal junction. Intraluminal contents were flushed with warm modified Krebs Ringers bicarbonate (KRB) buffer and intestines placed into 50 mL tubes containing oxygenated, cold KRB buffer. Intact segments (1.5 cm) of rat distal ileum were oriented longitudinally, with the oral end fixed in the organ chamber between bipolar stimulating electrodes and the aboral end attached to a solid-state force transducer and submerged in a 10 ml-chamber containing KRB at 37° C. and constantly aerated with 95% O2/5% CO2 (FIG. 1). […] The entire assembly was placed into 37° C. KRB buffer in jacketed 10 mL myobath chambers. The length of each segment was adjusted to an initial resting tension of 1 g and maintained at 37° C. in a KRB buffer or KRB containing linoleic acid (LA, 3 mg/mL) and a dipeptidyl peptidase-4 inhibitor (to prevent proteolysis of GLP-1). Contractile activity was digitized and data acquired for off line analysis using PowerLab hardware and Chart software (ADInstruments, Colorado Springs, Colo.). In separate experiments, segments were incubated in KRB or KRB+LA in the presence or absence of electrical field stimulation continuously for 45 min. Samples of the bathing solutions taken at 45 min and mucosal epithelial scrapings were stored frozen (minus 80° C.).
# Muscle tone and contractile amplitude (calculated as the average cyclic minimum and maximum, respectively) were determined for 5 min periods, pre- (˜5 min before) and post-treatment (40 min after start). The tone and amplitude at −5 and +40 minutes for each condition was compared to that condition's baseline by one-way ANOVA.
# [2] = system: rat distal ileum (L-cells); test: GLP-1 release from isolated rat distal ileum segments into the bathing medium (active GLP-1 ELISA), with or without electrical field stimulation; format: cell-based; conditions: for GLP-1 release, LA alone (mean ± SEM): LA 3 mg/mL 45 min, no E-stim
# Experimental: as §1
# Active GLP-1 concentration in thawed aliquots was measured by fluorescence on a plate reader using an ELISA (Linco Research, St. Charles, Mo.) with a detection range of 2-100 pM. This method measures both biologically active forms of GLP-1, that is GLP-1(7-36) and (GLP-1(7-36)) amide, that are currently known to be released by the intestinal mucosa. Measurements of GLP-1 were normalized to concentration in 10 mL volume and reported as pM. The mean and SEM GLP-1 release was calculated for each treatment. For each electrical stimulation condition (+/−LA) there were 2-6 rats with 2-4 segments of tissue per rat per condition.
# Statistical analysis was performed that included all conditions (with condition defined by the combination of frequency, voltage and duration of the electrical stimulation) and included a term for condition, treatment (LA alone or LA plus electrical stimulation) as a repeated factor, and the interaction between the two. Treatment is a within-subject effect, allowing each subject's LA alone response to serve as the control for that subject's response with electrical stimulation from the same study day. GLP-1 release was analyzed by repeated measures analyses of variance (ANOVA) on all eleven conditions with LA alone or LA plus electrical stimulation as a repeated factor. The mean and SEM reported in the tables below are based on 2-6 rats per condition with data from two replicates of each electrical stimulation condition averaged per rat. The P values are reported based on repeated measures analyses of variance (ANOVA) for each analysis and for the pairwise comparisons. The data were log-transformed prior to analyses to better satisfy the underlying statistical modeling assumptions of equal variability and sampling from populations with normal distributions.
smiles,measurement,setting,value
"CCCCC/C=C\C/C=C\CCCCCCCC(=O)O [LA, linoleic acid]",GLP-1 concentration in the bathing medium,"[1]; segments of duodenum, jejunum ileum and colon",increased
same,GLP-1 concentration in the bathing medium,[1]; segments of esophagus or stomach,not
same,Change in muscle tone of isolated ileum after 40 min compared to KRB buffer,isolated ileum; LA combined with E-stim 14V 40 Hz 5 ms,significant reduction
same,Change in muscle tone of isolated ileum after 40 min compared to KRB buffer,isolated ileum; LA combined with E-stim 14 V 80 Hz 5 ms,significant reduction
same,Muscle tone of isolated ileum compared to KRB buffer alone,isolated ileum; LA with E-stim 14V 0.4 Hz 300 ms,not different
same,Muscle tone of isolated ileum compared to KRB buffer alone,isolated ileum; LA with E-stim 14V 20 Hz 5 ms,not different
same,Change in muscle tone of isolated ileum after 40 min,isolated ileum; incubation in LA alone (FIG. 9),tended to decrease
same,"GLP-1 release, LA alone (mean ± SEM)",[2]; paired control for 0.15 Hz 0.7 V 300 ms,17.9 ± 4.1 pM
same,"GLP-1 release, LA alone (mean ± SEM)",[2]; paired control for 0.15 Hz 2 V 5 ms,12.1 ± 4.0 pM
same,"GLP-1 release, LA alone (mean ± SEM)",[2]; paired control for 0.15 Hz 5 V 5 ms,17.6 ± 5.9 pM
same,"GLP-1 release, LA alone (mean ± SEM)",[2]; paired control for 0.15 Hz 10 V 5 ms,19.5 ± 9.0 pM
same,"GLP-1 release, LA alone (mean ± SEM)",[2]; paired control for 0.15 Hz 20 V 5 ms,12.5 ± 1.7 pM
same,"GLP-1 release, LA alone (mean ± SEM)",[2]; paired control for 0.4 Hz 14 V 5 ms,11.0 ± 2.8 pM
same,"GLP-1 release, LA alone (mean ± SEM)",[2]; paired control for 0.4 Hz 14 V 300 ms,12.7 ± 2.4 pM
same,"GLP-1 release, LA alone (mean ± SEM)",[2]; paired control for 4 Hz 14 V 5 ms,8.6 ± 1.8 pM
same,"GLP-1 release, LA alone (mean ± SEM)",[2]; paired control for 20 Hz 14 V 5 ms,14.4 ± 5.9 pM
same,"GLP-1 release, LA alone (mean ± SEM)",[2]; paired control for 40 Hz 14 V 5 ms,10.2 ± 2.1 pM
same,"GLP-1 release, LA alone (mean ± SEM)",[2]; paired control for 80 Hz 14 V 5 ms,20.6 ± 3.4 pM
same,"GLP-1 release, LA + E-stim (mean ± SEM)","[2]; LA 3 mg/mL 45 min plus electrical stimulation 0.15 Hz 0.7 V 300 ms, p 0.257 vs LA alone",22.1 ± 4.2 pM
same,"GLP-1 release, LA + E-stim (mean ± SEM)","[2]; LA 3 mg/mL 45 min plus electrical stimulation 0.15 Hz 2 V 5 ms, p 0.948 vs LA alone",11.1 ± 1.0 pM
same,"GLP-1 release, LA + E-stim (mean ± SEM)","[2]; LA 3 mg/mL 45 min plus electrical stimulation 0.15 Hz 5 V 5 ms, p 0.344 vs LA alone",22.6 ± 9.4 pM
same,"GLP-1 release, LA + E-stim (mean ± SEM)","[2]; LA 3 mg/mL 45 min plus electrical stimulation 0.15 Hz 10 V 5 ms, p 0.311 vs LA alone",29.4 ± 6.6 pM
same,"GLP-1 release, LA + E-stim (mean ± SEM)","[2]; LA 3 mg/mL 45 min plus electrical stimulation 0.15 Hz 20 V 5 ms, p 0.212 vs LA alone",16.5 ± 3.7 pM
same,"GLP-1 release, LA + E-stim (mean ± SEM)","[2]; LA 3 mg/mL 45 min plus electrical stimulation 0.4 Hz 14 V 5 ms, p 0.761 vs LA alone",10.4 ± 1.8 pM
same,"GLP-1 release, LA + E-stim (mean ± SEM)","[2]; LA 3 mg/mL 45 min plus electrical stimulation 0.4 Hz 14 V 300 ms, p 0.056 vs LA alone",31.3 ± 5.9 pM
same,"GLP-1 release, LA + E-stim (mean ± SEM)","[2]; LA 3 mg/mL 45 min plus electrical stimulation 4 Hz 14 V 5 ms, p 0.838 vs LA alone",9.1 ± 1.4 pM
same,"GLP-1 release, LA + E-stim (mean ± SEM)","[2]; LA 3 mg/mL 45 min plus electrical stimulation 20 Hz 14 V 5 ms, p 0.152 vs LA alone",32.6 ± 12.2 pM
same,"GLP-1 release, LA + E-stim (mean ± SEM)","[2]; LA 3 mg/mL 45 min plus electrical stimulation 40 Hz 14 V 5 ms, p 0.016 vs LA alone",38.1 ± 11.1 pM
same,"GLP-1 release, LA + E-stim (mean ± SEM)","[2]; LA 3 mg/mL 45 min plus electrical stimulation 80 Hz 14 V 5 ms, p 0.391, includes one result designated 100 pM (upper level of detection, actual 178 pM)",33.7 ± 12.4 pM
same,LA-evoked increase of GLP-1 in the presence of TTX,[2]; TTX 0.5 μM concurrently with linoleic acid for 45 min (FIG. 7),persisted
same,GLP-1 released after 45 mins incubation in LA,"[2]; compiled data from 51 distal ileum segments, LA 3 mg/mL, mean ± SEM, KRB buffer alone 3.6 pM",21.9 ± 2.6 pM
same,Enhancement of GLP-1 released during incubation with nutrient stimulus by E-stim compared to LA alone,"[2]; four electrical stimulation conditions with total charge 1400, 1680, 2800 and 5600 μC",150-300%
same,Increase of GLP-1 release by electrical stimulation together with LA over that evoked by LA alone,"[2]; in the presence of TTX 0.5 μM, E-stim 14V 0.4 Hz 300 ms, 45 min",239±64%
same,LA concentration giving maximal GLP-1 response,"[2]; tissue incubated in 1, 3 and 10 mg/mL LA, data not shown",3 mg/mL
same,GLP-1 concentration over time,[2]; two segments of ileum incubated in 3 mg/ml LA (FIG. 4),increased over time
"NC1=N[C@H](O)[C@H]2[C@H]3O[C@]4(O)O[C@@H]([C@@H](O)[C@@]2(N1)[C@@H]4O)[C@]3(O)CO [TTX, tetrodotoxin]",Effect of TTX alone on GLP-1 release,[2],no effect
same,Effect of tetrodotoxin on the two-fold increase in GLP-1 evoked by direct electrical stimulation of ileal tissue,[2],did not prevent
